According to patent US11807620B2, “Quinazolinone compounds and related compounds” (PLEXIUM, INC., priority 2020, dated 2023):

Target: T1, cereblon (NanoLuc-CRBN) (Homo sapiens, UniProt Q96SW2)
T1 construct: host or cells: HEK293T
Assay: NanoBRET CRBN Cellular Target Engagement Assay
Assay type: binding
Conditions: compound tested at 10 μM, HEK293T cells transfected with NanoLuc-CRBN, 2 hr incubation; for remaining activity at 10 µM: lower = higher affinity, read-out: % tracer bound At the end of assay; for inhibition at 10 µM: read-out: % tracer removed From CBLN
Text: The following example measures the extent to which a test compound of this invention binds to cereblon. In this example, a commercially available cereblon binding test kit (Promega Corporation, Madison, Wis., USA) was used but adapted to a 384 well format.
The kit comprises a tracer that binds to cereblon to form a tracer-cereblon complex. This complex is reversible. Upon addition of the test compound, competition between the tracer and the test compound for the binding site(s) on cereblon occurs. The extent of tracer release from cereblon correlates to the affinity of test compound to bind to cereblon. The higher the affinity, the more tracer is released from cereblon.
The assay is a homogenous cell-based assay that used bioluminescence resonance energy transfer (BRET) to measure cereblon target compound binding which causes loss of BRET. Lower BRET values correlate to higher loss of tracer bound to cereblon and, accordingly, higher the levels of target compound binding to cereblon.
The specifics of the assay include HEK293T cells were transfected with a NanoLuc-CRBN expression plasmid using Fugene as described. Approximately 24 hr later, transfected cells were washed with 1× Phosphate Buffered Saline (PBS) and harvested using trypsin. Cells were resuspended in Opti-MEM (available from Thermo Fisher Scientific) at a concentration of 2×10^5 cells/mL. A ratio of 1 part 100× Tracer to 4 parts NanoBRET Tracer Dilution Buffer was used to make a 20× Tracer stock. Next, 40 μl cells per well containing 1× tracer was dispensed into 384 well white tissue culture treated plates. Compounds were then dispensed using a D330e Digital Dispenser (Tecan Trading AG) and plates were allowed to incubate for 2 hr at 37° C., 5% CO2. Immediately prior to BRET measurements, a 3× Complete NanoBret Nano-Glo Substrate stock in Opti-MEM was prepared and 20 μl per well of substrate was subsequently added to the assay plates. Following a 2-3 minute incubation at room temperature, donor (450 nm) and acceptor (610 nm) emission values were read on a CLARIOStar multimode plate reader (BMG) in luminescence mode. Data were converted to milliBRET units by dividing acceptor emission values by donor emission and multiplying by 1000. […]

T1 sequence (Q96SW2 whole entry): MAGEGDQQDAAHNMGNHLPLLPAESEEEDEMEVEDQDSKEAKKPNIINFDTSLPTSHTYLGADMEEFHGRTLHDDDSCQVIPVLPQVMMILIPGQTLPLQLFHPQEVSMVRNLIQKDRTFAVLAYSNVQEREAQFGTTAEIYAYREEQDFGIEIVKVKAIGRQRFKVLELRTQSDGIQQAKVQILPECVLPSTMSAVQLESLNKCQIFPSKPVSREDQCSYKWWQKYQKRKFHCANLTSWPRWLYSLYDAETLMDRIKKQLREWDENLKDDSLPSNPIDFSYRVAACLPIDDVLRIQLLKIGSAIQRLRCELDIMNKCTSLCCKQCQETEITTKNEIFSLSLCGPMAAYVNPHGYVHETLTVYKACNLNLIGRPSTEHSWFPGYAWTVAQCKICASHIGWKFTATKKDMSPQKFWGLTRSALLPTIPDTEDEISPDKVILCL

SMILES	remaining activity at 10 µM	inhibition at 10 µM
COc1cccc(CNc2cccc3nc(C)n(C4CCC(=O)NC4=O)c(=O)c23)c1 (stereo not shown) [Example 3, 3-(5-((3-methoxybenzyl)amino)-2-methyl-4-oxoquinazolin-3(4H)-yl)piperidine-2,6-dione]	27.3%	72.7%
Cc1nc2cccc(NCc3ccccc3C#N)c2c(=O)n1C1CCC(=O)NC1=O (stereo not shown) [Example 13, 3-(5-((2-cyanobenzyl)-amino)-2-methyl-4-oxoquinazolin-3(4H)-yl)piperidine-2,6-dione]	16%	84%
Cc1ccc(CNc2cccc3nc(C)n(C4CCC(=O)NC4=O)c(=O)c23)cc1 (stereo not shown) [Example 8, 3-(2-methyl-5-((4-methylbenzyl)amino)-4-oxoquinazolin-3(4H)-yl)piperidine-2,6-dione]	47.7%	52.3%
Cc1nc2cccc(NCc3ccccc3F)c2c(=O)n1C1CCC(=O)NC1=O (stereo not shown) [Example 6, 3-(5-((2-fluorobenzyl)amino)-2-methyl-4-oxoquinazolin-3(4H)-yl)piperidine-2,6-dione]	26.6%	73.4%
COc1cc(CNc2cccc3nc(C)n(C4CCC(=O)NC4=O)c(=O)c23)cc(OC)c1 (stereo not shown) [Example 16, 3-(5-((3,5-dimethoxy-benzyl)-amino)-2-methyl-4-oxoquinazolin-3(4H)-yl)piperidine-2,6-dione]	20.9%	79.1%
COc1ccccc1CNc1cccc2nc(C)n(C3CCC(=O)NC3=O)c(=O)c12 (stereo not shown) [Example 2, 3-(5-((2-methoxybenzyl)amino)-2-methyl-4-oxoquinazolin-3(4H)-yl)piperidine-2,6-dione]	47.4%	52.6%
Cc1nc2cccc(NCc3cccc(Cl)c3)c2c(=O)n1C1CCC(=O)NC1=O (stereo not shown) [Example 10, 3-(5-((3-chlorobenzyl)-amino)-2-methyl-4-oxoquinazolin-3(4H)-yl)piperidine-2,6-dione]	20.2%	79.8%
Cc1nc2cccc(NCc3ccc(C(F)(F)F)cc3)c2c(=O)n1C1CCC(=O)NC1=O (stereo not shown) [Example 15, 3-(5-((4-trifluoromethyl-benzyl)-amino)-2-methyl-4-oxoquinazolin-3(4H)-yl)piperidine-2,6-dione]	23.9%	76.1%
Cc1nc2cccc(NCc3c(Cl)cccc3Cl)c2c(=O)n1C1CCC(=O)NC1=O (stereo not shown) [Example 18, 3-(5-((2,6-dichlorobenzyl)-amino)-2-methyl-4-oxoquinazolin-3(4H)-yl)piperidine-2,6-dione]	21.3%	78.7%
Cc1nc2cccc(NCc3cc(Cl)ccc3Cl)c2c(=O)n1C1CCC(=O)NC1=O (stereo not shown) [Example 20, 3-(5-((2,5-dichlorobenzyl)amino)-2-methyl-4-oxoquinazolin-3(4H)-yl)piperidine-2,6-dione]	12.1%	87.9%
Cc1nc2cccc(NCc3ccc(C#N)cc3)c2c(=O)n1C1CCC(=O)NC1=O (stereo not shown) [Example 14, 3-(5-((4-cyanobenzyl)-amino)-2-methyl-4-oxoquinazolin-3(4H)-yl)piperidine-2,6-dione]	11.5%	88.5%
COc1ccc(OC)c(CNc2cccc3nnn(C4CCC(=O)NC4=O)c(=O)c23)c1 (stereo not shown) [Example 19, 3-(5-((2,5-dimethoxybenzyl)amino)-4-oxobenzo[d][1,2,3]triazin-3(4H)-yl)piperidine-2,6-dione]	29.7%	71.3%
Cc1nc2cccc(NCc3ccc(CO)cc3)c2c(=O)n1C1CCC(=O)NC1=O (stereo not shown) [Example 21, 3-(5-((4-(hydroxymethyl)benzyl)amino)-2-methyl-4-oxoquinazolin-3(4H)-yl)piperidine-2,6-dione]	9.9%	90.1%
Cc1nc2cccc(NCc3ccccc3Cl)c2c(=O)n1C1CCC(=O)NC1=O (stereo not shown) [Example 9, 3-(5-((2-chlorobenzyl)-amino)-2-methyl-4-oxoquinazolin-3(4H)-yl)piperidine-2,6-dione]	30.2%	69.8%
COc1ccc(CNc2cccc3nc(C)n(C4CCC(=O)NC4=O)c(=O)c23)cc1OC (stereo not shown) [Example 12, 3-(5-((3,4-dimethoxy-benzyl)-amino)-2-methyl-4-oxoquinazolin-3(4H)-yl)piperidine-2,6-dione]	0%	100%
Cc1ccccc1CNc1cccc2nc(C)n(C3CCC(=O)NC3=O)c(=O)c12 (stereo not shown) [Example 11, 3-(5-((2-methylbenzyl)-amino)-2-methyl-4-oxoquinazolin-3(4H)-yl)piperidine-2,6-dione]	30.2%	69.8%
COc1ccc(CNc2cccc3nc(C)n(C4CCC(=O)NC4=O)c(=O)c23)c(OC)c1 (stereo not shown) [Example 17, 3-(5-((2,4-dimethoxy-benzyl)-amino)-2-methyl-4-oxoquinazolin-3(4H)-yl)piperidine-2,6-dione]	34.8%	65.2%
